Measured values taken from ChEMBL document CHEMBL1201862, “PubChem BioAssay data set” (2004).
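Cultured in 96-well plates, cells were exposed to test compound for 48 hours across five concentrations. At the GI50, growth is halved.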 Activity calls are given as the source filed them. No stated cut-off is given here; in the data, active = GI50 up to about 1.1 µM and inactive = higher.

Legend:
Assay in all cases: growth of human tumour cells (NCI), 48 h
UACC-257 = tested on: UACC-257
DU-145 = tested on: DU-145
OVCAR-4 = tested on: OVCAR-4
IGROV-1 = tested on: IGROV-1
HCT-15 = tested on: HCT-15
SK-MEL-28 = tested on: SK-MEL-28
M14 = tested on: M14
HOP-92 = tested on: HOP-92
SW-620 = tested on: SW-620
NCI-H226 = tested on: NCI-H226
KM12 = tested on: KM12
HT-29 = tested on: HT-29
COLO 205 = tested on: COLO 205
LOX IMVI = tested on: LOX IMVI
TK-10 = tested on: TK-10
HL-60 = tested on: HL-60
NCI/ADR-RES = tested on: NCI/ADR-RES
MDA-MB-231 = tested on: MDA-MB-231
SF-539 = tested on: SF-539
MDA-N = tested on: MDA-N

| Structure (SMILES) | GI50 (UACC-257) | GI50 (DU-145) | GI50 (OVCAR-4) | GI50 (IGROV-1) | GI50 (HCT-15) | GI50 (SK-MEL-28) | GI50 (M14) | GI50 (HOP-92) | GI50 (SW-620) | GI50 (NCI-H226) | GI50 (KM12) | GI50 (HT-29) | GI50 (COLO 205) | GI50 (LOX IMVI) | GI50 (TK-10) | GI50 (HL-60) | GI50 (NCI/ADR-RES) | GI50 (MDA-MB-231) | GI50 (SF-539) | GI50 (MDA-N) |
| --- | --- | --- | --- | --- | --- | --- | --- | --- | --- | --- | --- | --- | --- | --- | --- | --- | --- | --- | --- | --- |
| COc1ccc(/C=C2\CC3C4CC=C5C[C@@H](O)CC[C@]5(C)C4CC[C@]3(C)\C2=N\O)cc1OC (stereo partly drawn) | 7.94 µM (inactive) | 26.1 µM (inactive) | 5.02 µM (inactive) | 38.8 µM (inactive) | 4.32 µM | 23 µM (inactive) | 19.6 µM (inactive) | 29.2 µM (inactive) | 43.4 µM (inactive) | 7.28 µM (inactive) | 7.5 µM (inactive) | 9.02 µM (inactive) | 5.13 µM (inactive) | 6.92 µM (inactive) | 5.09 µM (inactive) | 11.2 µM (inactive) | 9.18 µM (inactive) | 16.2 µM (inactive) | 7.26 µM (inactive) | 14.1 µM (inactive) |
| COC(=O)C1(Cc2ccccc2)Cc2cc3c(cc2C1)CCC3 | 29.2 µM (inactive) | 34.5 µM (inactive) | 30.7 µM (inactive) | 24.5 µM (inactive) | 28.4 µM | 41.1 µM (inactive) | 30.6 µM (inactive) | 11 µM (inactive) | 36.1 µM (inactive) | 22 µM (inactive) | 22.3 µM (inactive) | 10.5 µM (inactive) | 16.7 µM (inactive) | 18.6 µM (inactive) | 68.7 µM (inactive) | 14.1 µM (inactive) | 35.5 µM (inactive) | 45.3 µM (inactive) | 41.3 µM (inactive) | 16 µM (inactive) |
| C/C(=N\O)C1CC(CC(=O)O)C1(C)C (stereo not drawn) | > 100 µM (inactive) | > 100 µM (inactive) | > 100 µM (inactive) | > 100 µM (inactive) | > 100 µM | > 100 µM (inactive) | > 100 µM (inactive) | > 100 µM (inactive) | > 100 µM (inactive) | > 100 µM (inactive) | > 100 µM (inactive) | > 100 µM (inactive) | > 100 µM (inactive) | > 100 µM (inactive) | > 100 µM (inactive) | > 100 µM (inactive) | > 100 µM (inactive) | > 100 µM (inactive) | > 100 µM (inactive) | > 100 µM (inactive) |
| COc1cccc(NC(=O)CC(=O)n2nc(-c3ccccc3)c(/N=N/c3ccc(Cl)cc3)c2-c2ccccc2)c1 | 24.3 µM (inactive) | 25.3 µM (inactive) | 36.4 µM (inactive) | 7.55 µM (inactive) | 11.5 µM | 25.5 µM (inactive) | 15.2 µM (inactive) | 18.7 µM (inactive) | 36.1 µM (inactive) | 20.3 µM (inactive) | 31.7 µM (inactive) | 19.6 µM (inactive) | 23 µM (inactive) | 13.2 µM (inactive) | 64.1 µM (inactive) | 6.43 µM (inactive) | 19.5 µM (inactive) | 21.3 µM (inactive) | 26.6 µM (inactive) | 38.8 µM (inactive) |
| COC(=O)[C@@H](NC(=O)[C@H](N)Cc1ccc(N(CCCl)CCCl)cc1)C(C)C | 6.37 µM (inactive) | 8.57 µM (inactive) | 13.1 µM (inactive) | 15.9 µM (inactive) | 18.4 µM | 11.9 µM (inactive) | 8.17 µM (inactive) | 1.63 µM (inactive) | 11 µM (inactive) | 18.7 µM (inactive) | 25.1 µM (inactive) | 24.6 µM (inactive) | 16.9 µM (inactive) | 5.97 µM (inactive) | 22.4 µM (inactive) | 1.32 µM (inactive) | 12.6 µM (inactive) | 26.1 µM (inactive) | 7.91 µM (inactive) | 23.3 µM (inactive) |
| CN(N)c1nc(N)c(C#N)c(C#N)c1C#N | > 10 µM (inactive) | > 10 µM (inactive) | > 10 µM (inactive) | > 10 µM (inactive) | > 10 µM | > 10 µM (inactive) | > 10 µM (inactive) | > 10 µM (inactive) | > 10 µM (inactive) | – | > 10 µM (inactive) | > 10 µM (inactive) | > 10 µM (inactive) | > 10 µM (inactive) | > 10 µM (inactive) | > 10 µM (inactive) | > 10 µM (inactive) | > 10 µM (inactive) | > 10 µM (inactive) | > 10 µM (inactive) |
| CC1(C)CC[C@]2(C)CC[C@]3(C)C(=CC[C@@H]4[C@@]5(C)CCC(=O)C(C)(C)[C@@H]5[C@H](O)C[C@]43C)[C@@H]2C1 | 17.7 µM (inactive) | 18.2 µM (inactive) | 18.1 µM (inactive) | 17 µM (inactive) | 18.6 µM | 17.6 µM (inactive) | 19 µM (inactive) | 17.5 µM (inactive) | 19.8 µM (inactive) | – | 19.5 µM (inactive) | 17 µM (inactive) | 17.4 µM (inactive) | 17.1 µM (inactive) | 16.5 µM (inactive) | 29.5 µM (inactive) | 19.6 µM (inactive) | 11.5 µM (inactive) | 17.8 µM (inactive) | 15.6 µM (inactive) |
